We go through one molecule from publication PMC7821181, “MS Binding Assays for Glycine Transporter 2 (GlyT2) Employing Org25543 as Reporter Ligand” (Chemmedchem, 2020).

In the test the target is T1, GlyT2 (Homo sapiens, UniProt Q9Y345).
T1 construct: host or cells: HEK293 cells stably expressing hGlyT2; crude membrane fractions
T1 sequence (Q9Y345 1-797): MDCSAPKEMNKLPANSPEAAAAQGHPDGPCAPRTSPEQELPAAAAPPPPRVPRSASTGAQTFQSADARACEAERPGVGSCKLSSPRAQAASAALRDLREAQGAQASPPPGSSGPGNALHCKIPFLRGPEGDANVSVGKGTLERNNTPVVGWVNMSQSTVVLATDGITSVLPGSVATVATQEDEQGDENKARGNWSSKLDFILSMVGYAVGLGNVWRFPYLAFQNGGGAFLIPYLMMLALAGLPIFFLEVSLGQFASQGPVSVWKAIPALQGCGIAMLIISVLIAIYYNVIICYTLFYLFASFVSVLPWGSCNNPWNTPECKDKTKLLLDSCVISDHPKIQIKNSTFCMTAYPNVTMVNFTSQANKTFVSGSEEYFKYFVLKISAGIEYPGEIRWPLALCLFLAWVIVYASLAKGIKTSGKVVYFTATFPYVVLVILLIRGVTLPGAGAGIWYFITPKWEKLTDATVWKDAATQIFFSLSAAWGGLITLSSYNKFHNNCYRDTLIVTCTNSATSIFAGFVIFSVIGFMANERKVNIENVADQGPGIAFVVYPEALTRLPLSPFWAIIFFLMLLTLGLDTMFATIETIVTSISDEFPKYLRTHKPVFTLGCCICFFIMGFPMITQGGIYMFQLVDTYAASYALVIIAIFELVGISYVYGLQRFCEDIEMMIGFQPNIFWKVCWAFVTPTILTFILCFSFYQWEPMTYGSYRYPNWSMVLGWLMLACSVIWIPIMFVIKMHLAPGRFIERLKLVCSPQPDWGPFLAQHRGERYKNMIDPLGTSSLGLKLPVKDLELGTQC
Description: preliminary Org25543 saturation experiments in absence or presence of glycine. It counts as binding. The conditions noted are these: for Bmax in relation to control without glycine (100 %) / Kd in relation to control without glycine (100 %): mean ± SD, two experiments. As for the experimental part:
glass fiber, 1.0 µm, 350 µL; Pall Corporation, Port Washington, NY, USA) were washed with water (3 x 200 µL) and methanol (3 x 200 µL) and subsequently pre-incubated for 2 h at room temperature with 0.5 % polyethylenimine (PEI). […]
KCl, 1 mM MgCl2, 1 mM CaCl2, pH 7.5) in polypropylene 96 well plates (1.2 mL well volume, Sarstedt, Nümbrecht, Germany) in total volume of 250 µL at 37 °C in a shaking water bath. After the incubation times for the filters and incubation samples had been expired, PEI was removed from the filters by vacuum filtration and 210 µL aliquots of the incubation samples were transferred on the filters and were removed by vacuum filtration as well. The filters were washed with ammonium ac etate buffer (3 x 200 µL, 154 mM, pH 7.4) and were dried at 50 °C for 1 h. After that the remaining Org25543 on the filters were washed down with acetonitrile (3 x 70 µL) containing [ 2H7]Org25543 (125 pM) and 52.5 µL ammonium bicarbonate buffer (5 mM, pH 7.8) was added to the samples to adjust the sample solvent to the mobile phase (5 mM ammonium bicarbonate buffer ( pH 7.8)/acetonitrile ( 20:80, v/v)). Finally, the samples were subjected to LC-ESI-MS/MS quantification without further sample preparation. […]
Investigating the inhibition mode of glycine in preliminary Org25543 saturation […]
In these preliminary experiments saturation experiments were performed in the same way as it is described in the Material and methods part except that Org25543 and GlyT2 were incubated either in the absence of glycine or in the presence of 2, 20 or 200 mM glycine. The saturation isotherms of a representative experiment are depicted […]
(control) in all experiments and Kd and Bmax values determined in the presence of the […]

Turning to `COc1cc(C(=O)NCC2(N(C)C)CCCC2)cc(OC)c1OCc1ccccc1` [Org25543, N‐[[1‐(dimethylamino)cyclopentyl]methyl]‐3,5‐dimethoxy‐4‐(phenylmethoxy)benzamide], the “Bmax in relation to control without glycine (100 %)” value is given as 106 ± 13% (2 mM glycine) and 101 ± 12% (20 mM glycine). Besides, the “Kd in relation to control without glycine (100 %)” value is, setting by setting: (2 mM glycine) 129 ± 24%; (20 mM glycine) 222 ± 56%; (200 mM glycine) 814 ± 154%. For the same molecule, the “B max (representative preliminary saturation experiment)” value is 9.75 pmol (mg protein)-1 (in the presence of 2 mM glycine), 9.24 pmol (mg protein)-1 (in the presence of 20 mM glycine), 8.74 pmol (mg protein)-1 (in the presence of 200 mM glycine) and 8.45 pmol (mg protein)-1 (without glycine). Further, the Kd (without glycine, read-out: K d of Org25543 (representative preliminary saturation experiment)) was 5.18 nM.
